We go through five compounds from paper PMC7893915, “Assessing cross-resistance within the pyrethroids in terms of their interactions with key cytochrome P450 enzymes and resistance in vector populations” (Parasites & Vectors, 2021).

Read-outs that look alike come from different tables or passages of the source.

In one data set the test system is CYP6M7. The conditions noted are these: two earlier studies; ref [28]; cited from earlier work.
The test system of a further data set is CYP6P9b. The conditions noted are these: two earlier studies; ref [28]; cited from earlier work.
Another data set relates to CYP6P9a. The conditions noted are these: two earlier studies; ref [28]; cited from earlier work.
Data set [1] has as its system P450 panel (CYP6M2, CYP6P3, CYP6P9a, CYP6P2, CYP9J5, CYP6Z3, CYP6Z2). The data set is described as follows: P450 inhibition, whole P450 panel (mean across P450s). Format: biochemical, Anopheles gambiae and An. funestus. The conditions noted are these: for IC50: Anopheles gambiae and Anopheles funestus, mean of the seven P450s of Table S2, read-out: IC50 Mean across P450s. An excerpt: Cytochrome P450 inhibition assays using fluorogenic probe substrates have become commonplace in drug discovery screening cascades and are a rapid method of screening for insecticide interactions with mosquito P450s to predict insecticide binding, metabolism, cross-resistance and synergism. In this study, the half maximal inhibitory concentration (IC50), which provides a value for inhibition of each P450 by each pyrethroid (also referred to as ‘binding affinity’), and the percentage depletion, which gives a value for metabolism of each pyrethroid by each P450 (also referred to as vulnerability to metabolic attack), were both included as parameters to establish a P450s structural activity relationship model. This model was used to understand both the chemistry of the pyrethroids and the interaction with mosquito P450s that function as monooxygenases in metabolic resistance, to predict cross-resistance liabilities in vivo. […] A low percentage depletion indicates low metabolism of the pyrethroid, which means that it may be less vulnerable to resistance mediated by P450s.
In addition, inhibition activity data for these pyrethroids exposed to CYP6Z3 from the An. gambiae Kisumu strain were also generated (Additional file 1).

In the next data set the test system is Gambiae Complex. The conditions noted are these: WHO Bioassay 1998, cited from earlier work.
In data set [2] the test system is An. funestus strain, FUMOZ-R. Also noted: method as in PMID 26930058. The conditions noted are these: strain with upregulated P450 levels without any target-site mutations; ref [47]; cited from earlier work.
The target of a further data set is T1, CYP6Z2 (Anopheles gambiae, UniProt Q7PNB5).
T1 sequence (Q7PNB5 1-492): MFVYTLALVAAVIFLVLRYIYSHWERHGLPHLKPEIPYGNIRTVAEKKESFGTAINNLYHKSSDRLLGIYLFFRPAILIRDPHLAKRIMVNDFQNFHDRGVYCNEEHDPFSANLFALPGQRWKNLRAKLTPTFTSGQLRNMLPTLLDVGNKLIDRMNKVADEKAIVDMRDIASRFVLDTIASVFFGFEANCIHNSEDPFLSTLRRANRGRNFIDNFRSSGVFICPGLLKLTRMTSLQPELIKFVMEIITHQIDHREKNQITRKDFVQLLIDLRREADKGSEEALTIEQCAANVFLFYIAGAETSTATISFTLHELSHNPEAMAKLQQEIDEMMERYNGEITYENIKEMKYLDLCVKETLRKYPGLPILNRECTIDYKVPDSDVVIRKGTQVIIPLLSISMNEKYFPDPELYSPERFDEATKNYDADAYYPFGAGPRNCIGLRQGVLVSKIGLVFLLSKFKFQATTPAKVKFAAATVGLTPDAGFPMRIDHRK
T1 sequence (Q86QH5 1-679 partner): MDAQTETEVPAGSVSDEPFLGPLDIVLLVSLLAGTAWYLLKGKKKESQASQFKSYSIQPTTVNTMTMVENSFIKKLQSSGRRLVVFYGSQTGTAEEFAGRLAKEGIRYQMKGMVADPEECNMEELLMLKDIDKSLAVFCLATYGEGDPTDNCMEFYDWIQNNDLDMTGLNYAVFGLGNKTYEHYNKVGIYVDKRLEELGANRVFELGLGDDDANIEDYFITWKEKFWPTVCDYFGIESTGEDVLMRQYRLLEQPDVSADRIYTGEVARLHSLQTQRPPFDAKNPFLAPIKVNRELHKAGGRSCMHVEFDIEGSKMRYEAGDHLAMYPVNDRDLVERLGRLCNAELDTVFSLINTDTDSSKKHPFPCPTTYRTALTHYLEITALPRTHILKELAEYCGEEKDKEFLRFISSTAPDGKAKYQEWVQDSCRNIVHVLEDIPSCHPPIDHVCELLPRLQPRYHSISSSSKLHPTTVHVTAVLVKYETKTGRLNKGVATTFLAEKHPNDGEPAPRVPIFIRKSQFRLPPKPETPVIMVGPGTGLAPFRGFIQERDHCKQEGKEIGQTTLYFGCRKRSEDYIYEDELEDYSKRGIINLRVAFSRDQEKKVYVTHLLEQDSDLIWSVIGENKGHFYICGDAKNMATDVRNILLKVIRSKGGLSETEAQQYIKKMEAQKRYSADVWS
The conditions noted are these: read-out: IC50 CYP6Z2; inhibition of diethoxyfluorescein metabolism; footnote a; ref Yunta et al. 2016[8]; cited from earlier work.

[3] abbreviates: recombinant P450s, probe diethoxyfluorescein.
The mark [4] stands for this setting: ID 100127, F1, house resting indoors, 4/2010, VK6, Burkina Faso, ref Kwiatkowska RM et al. Gene. 2013;519(1):98-106.
[5] abbreviates: ID 100156, F0, larval collection, 5/2009-4/2010, Chano, Ethiopia, ref Massebo F et al. Parasites Vectors. 2013;6.
Where [6] appears, read: ID 100045, F0, larval collection, 7/2010-12/2010, Ahero Division, Kenya, ref Ochomo E et al. Med Vet Entomol. 2013;27(2):156-64.
The mark [7] stands for this setting: ID 100117, F1, house resting indoors, 4/2010, VK2, Burkina Faso, ref Kwiatkowska RM et al. Gene. 2013;519(1):98-106.
[8] abbreviates: ID 100160, F0, larval collection, 10/2008-5/2009, Nkolondom, Cameroon, ref Nwane P et al. Parasites Vectors. 2013;6.

The term IC50 denotes the point on the concentration scale where inhibition reaches its midpoint. As for `Cc1c(COC(=O)[C@@H]2[C@H](/C=C(\Cl)C(F)(F)F)C2(C)C)cccc1-c1ccccc1` (racemic) [Bifenthrin, bifenthrin], the “depletion (metabolised) by CYP6M7” value in the data set with CYP6M7 is recorded as 62%. Moreover, the “depletion (metabolised) by CYP6P9b” value in the data set on CYP6P9b is 71%. For the same compound, in the data set with CYP6P9a, the “depletion (metabolised) by CYP6P9a” value was 68%. Besides, the IC50 in data set [1] (setting [3]) was 9.8 µM. The “binding to the P450s panel, rank in words” value in data set [1] (among the six pyrethroids) was “lowest binding”.

As for `CC1(C)[C@H](C(=O)O[C@H](C#N)c2cccc(Oc3ccccc3)c2)[C@@H]1/C=C(\Cl)C(F)(F)F` (racemic) [λ-Cyhalothrin, λ-cyhalothrin], the IC50 in data set [1] (setting [3]) turned out to be 7.2 µM. For the same compound, the mortality in the data set on Gambiae Complex (setting [4]) was 7.3; in the data set on Gambiae Complex (setting [5]), 56.

Take `CC1(C)[C@H](C(=O)O[C@H](C#N)c2cccc(Oc3ccccc3)c2)[C@@H]1C=C(Br)Br` [Deltamethrin, deltamethrin]: the “effectiveness with or without piperonyl butoxide (PBO), in words” value in data set [2] is on record as “only effective when partnered with PBO”. The IC50 on CYP6Z2 is 13.9 µM; in data set [1], 5.5 µM. Also, the mortality in the data set on Gambiae Complex (setting [6]) was 92.31; in the data set with Gambiae Complex (setting [7]), 37.2; in the data set with Gambiae Complex (setting [4]), 18.8; with Gambiae Complex (setting [5]), 47; in the data set with Gambiae Complex (setting [8]) it was 95.

For `CCOc1ccc(C(C)(C)COCc2cccc(Oc3ccccc3)c2)cc1` [Etofenprox, etofenprox], the IC50 in data set [1] (setting [3]) turned out to be 7 µM.

As for `CC1(C)C(C=C(Cl)Cl)C1C(=O)OCc1cccc(Oc2ccccc2)c1` (stereo not drawn) [Permethrin, permethrin], the “effectiveness with or without piperonyl butoxide (PBO), in words” value in data set [2] is given as “only effective when partnered with PBO”. The IC50 on CYP6Z2 was 13.7 µM; in data set [1] (setting [3]), 7.6 µM. Further, the mortality is on record as 91.97 in the data set with Gambiae Complex (setting [6]), 4.1 with Gambiae Complex (setting [7]), 3 in the data set on Gambiae Complex (setting [4]) and 95 in the data set with Gambiae Complex (setting [8]).
